Measurements: publication PMC4766439, “Discovery of novel PDE9 inhibitors capable of inhibiting Aβ aggregation as potential candidates for the treatment of Alzheimer’s disease” (Scientific Reports, 2016)

Key:
SH-SY5Y cells [1] = assay: MTT cytotoxicity assay; assay type: cell-based, human; settings: below the 10 μM concentration, 48 h
[2] = Cu-ascorbate redox system (CCA fluorescence); settings: [Cu^2+] = 5 μM, [16] = 15 μM, ascorbate 150 μM, CCA 50 μM, PBS pH 7.4
Procedure: The experiments were performed as reported previously. […]. Then, ascorbate (150 μM) was added to the solution, and the fluorescence was recorded every 20 s (λexcitation = 395 nm, λemission = 450 nm). Each experiment was performed in triplicate. All test solutions contained 1 μM desferryl and 0.1% methanol.

PDE7A1 (130–482) = target: T1, PDE7A1 (130–482) (Homo sapiens, UniProt Q13946); assay: PDE activity assay, PDE7A1 catalytic domain; assay type: biochemical
T1 construct: PDE7A1 (130–482)
Procedure: (§1) The enzymatic activities of the catalytic domains of PDE9 and other PDEs were measured by using cGMP or cAMP as substrates. The assay buffer contained 20–50 mM Tris–HCl (pH 7.5–8.0), 10 mM MgCl2 or 4 mM MnCl2, 1 mM DTT, and 10–20 nM ^3H-cGMP or ^3H-cAMP (20000–30000 cpm/assay, GE Healthcare). The reaction was performed at room temperature for 15 min and then terminated by the addition of 0.2 M ZnSO4. The addition of 0.25 M BaSO4 precipitated the generated ^3H-GMP, whereas the unreacted ^3H-cGMP remained in solution. The radioactivity in the supernatant was measured in 2.5 mL with an Ultim Gold liquid scintillation counter. […] The IC50 values were calculated by nonlinear regression method by using GraphPad Prism 5.0 Software.

PDE2A3 (580–941) = target: T2, PDE2A3 (580–941) (Homo sapiens, UniProt O00408); assay: PDE activity assay, PDE2A3 catalytic domain; assay type: biochemical
T2 construct: PDE2A3 (580–941)
Procedure: as §1

PDE4D2 (86–413) = target: T3, PDE4D2 (86–413) (Homo sapiens, UniProt Q08499); assay: PDE activity assay, PDE4D2 catalytic domain; assay type: biochemical
T3 construct: PDE4D2 (86–413)
Procedure: as §1

[3] = Metal-chelating capacity by UV-vis spectrophotometry; assay type: physicochemical; settings: 30% (v/v) ethanol/buffer, pH 7.4
Procedure: The experiments were performed according to previously reported methods. The metal chelation was monitored spectrophotometrically using a UV–vis spectrophotometer. […].

[4] = PAMPA-BBB in vitro blood-brain barrier permeation assay; assay type: in vitro ADME
Procedure: The blood–brain barrier penetration capacity of the compounds was evaluated by using the parallel artificial membrane permeation assay (PAMPA). […] The porcine brain lipid (PBL) was obtained from Avanti Polar Lipids. The donor microplate (PVDF membrane, pore size of 0.45 nm) and the acceptor microplate were from Millipore. The acceptor 96-well microplate (COSTAR) was filled with 300 μL of a PBS/EtOH mixture (7:3) and the filter membrane was impregnated with 4 μL of PBL in dodecane (20 mg/mL). The compounds were dissolved in DMSO at a concentration of 5 mg/mL and diluted with the PBS/EtOH mixture (7:3) to a concentration of 100 μg /mL. Then, 200 μL of this solution was added to the donor wells and the wells were carefully placed on the acceptor plate, which was then incubated for 10 h at 25 °C in a vibrationless environment. After the incubation, the donor plate was removed and the concentration of compounds in the acceptor wells was determined with a UV plate reader (Flexstation 3). Each sample was analyzed at five wavelengths in four wells, and at least three independent runs were performed. The results are expressed as the mean ± standard deviation. In these experiments, 13 quality control standards of known BBB permeability were included to validate the analysis set.
where Vd is the volume in the donor well, Va is the volume in acceptor well, A is the filter area, t is the permeation time, [drug]acceptor is the absorbance of the compound in the acceptor well, and [drug]equilibrium is the theoretical equilibrium absorbance.

Aβ1-42 fibrils = target: T4, Aβ1-42 fibrils (Homo sapiens, UniProt P05067); assay: ThT assay, disaggregation of Cu^2+-induced Aβ1-42 fibrils; assay type: biochemical; settings: [Aβ1-42] = 25 μM, compound 50 μM, [Cu^2+] = 25 μM, additional 24 h
T4 construct: purchased Sigma
Procedure: For assaying the disaggregation of the copper (II)-induced Aβ1-42 fibrils, the Aβ1-42 stock solution was first diluted in HEPES buffer ([…], pH 6.6). The mixture of the peptide (10 μL, 25 μM final concentration) and copper (II) (10 μL, 25 μM final concentration) was then incubated at 37 °C for 24 h. Then, the test compound (10 μL, 50 μM final concentration) was added and incubated at 37 °C for an additional 24 h. Thereafter, 30 μL of the sample was diluted to a final volume of 200 μL with 50 mM glycine-NaOH buffer (pH 8.0) containing thioflavin-T (5 μM) in the dark. The detection method used was the same as that described above.

PDE8A1 (480–820) = target: T5, PDE8A1 (480–820) (Homo sapiens, UniProt O60658); assay: PDE activity assay, PDE8A1 catalytic domain; assay type: biochemical
T5 construct: PDE8A1 (480–820)
Procedure: as §1

PDE1B2 (10–487) = target: T6, PDE1B2 (10–487) (Homo sapiens, UniProt Q01064); assay: PDE activity assay, PDE1B2 catalytic domain; assay type: biochemical
T6 construct: PDE1B2 (10–487)
Procedure: as §1

PDE5A1 (535–860) = PDE5A1 (535–860) (Homo sapiens, UniProt O76074); assay: PDE activity assay, PDE5A1 catalytic domain; assay type: biochemical
Procedure: as §1

[5] = Lipid-water distribution coefficient, shake-flask 1-octanol/water; assay type: physicochemical; settings: 1-octanol/water (1:1), means of at least three independent tests
PDE3A (679–1087) = target: T7, PDE3A (679–1087) (Homo sapiens, UniProt Q14432); assay: PDE activity assay, PDE3A catalytic domain; assay type: biochemical
T7 construct: PDE3A (679–1087)
Procedure: as §1

[6] = Oxygen Radical Absorbance Capacity (ORAC-FL) assay; settings: Trolox as standard
Procedure: The assays were performed in 75 mM PBS (pH 7.4) and all the tested compounds were dissolved in DMSO and diluted with the PBS. Trolox was used as a standard (1–10 μM final concentration). The tested compounds at different concentrations (20 μL, final concentration: 2 μM) and fluorescein (FL, 120 μL, final concentration: 300 nM) were placed in the wells of a black 96-well plate. The mixture was incubated for 10 min at 37 °C and then, APPH solution (60 μL, final concentration: 12 mM diluted by 75 mM PBS) was added rapidly. […] A blank (FL + AAPH), with PBS replacing the compounds and Trolox was used for calibration in each assay. The compounds were tested at different concentrations (0.5–10 μM). The experiments were performed in three independent runs for each sample. The fluorescence measurements were normalized to that of the blank (without antioxidant). The area under the fluorescence decay curve (AUC) was calculated using the following equation (eq. 2):
where f0 is the fluorescence reading at 0 min and fi is the fluorescence reading at time i. The net AUC was calculated by the expression AUCsample − AUCblank. Regression equations between net AUC and Trolox concentrations were calculated. The final results were expressed in μM of Trolox equivalent/μM of pure compounds.

SH-SY5Y cells [7] = assay: Intracellular antioxidant activity (DCFH-DA, t-BuOOH); assay type: cell-based, human; settings: t-BuOOH-induced; 5 μM of 16 vs 10 μM of Trolox
Procedure: Cell culture was performed as reported previously. The human neuron-like cell line SH-SY5Y was obtained from the Institute of Biochemistry and Cell Biology, Shanghai Institute for Biological Sciences (Shanghai, China). The cells were cultured at 37 °C in a humidified atmosphere of 5% CO2 in Dulbecco’s modified Eagle’s medium (DMEM, GIBCO) supplemented with 10% fetal calf serum (FCS, GIBCO), 1 mM glutamine, 100 IU/mL penicillin, and 100 μg/mL streptomycin.
The antioxidant activity was determined as reported previously. The SH-SY5Y cells were seeded at a density of 1 × 10^4 cells/well in a 96-well plate. After 24 h, the culture medium was replaced with medium containing tested compounds, and the cells were cultured for an additional 24 h. Then, the cells were washed with PBS and incubated with 5 μM DCFH-DA (diluted by PBS) at 37 °C for 30 min. […] Then, the fluorescence of the cells in each well was measured (λexcitation = 485 nm, λemission = 535 nm) with a multifunctional microplate reader (Flex Station 3). The antioxidant activity was expressed as a percentage relative to that of the control cells and calculated using the formula (Ft – Fnt)/(Ft’ – Fnt) ×100, where Ft is the fluorescence value of the cells treated with the tested compound, Ft’ is the fluorescence value of the cells not treated with the tested compound, and Fnt is the fluorescence value of the cells treated with t-BuOOH.

Aβ1-42 = target: T8, Aβ1-42 (Homo sapiens, UniProt P05067); assay: Transmission electron microscopy (TEM) assay of Aβ1-42; assay type: biochemical; settings: [Aβ1-42] = 25 μM, compound 50 μM, [Cu^2+] = 25 μM, 37 °C, 24 h
T8 construct: purchased Sigma
Procedure: The assays were performed as reported previously. For the TEM assay of copper (II)-induced Aβ1-42 aggregation and the disaggregation of the fibrils, the samples were pretreated as described for the ThT assay. Samples (10 μL) were placed on a carbon-coated copper/rhodium grid for 2 min. Then, each grid was stained with uranyl acetate (1%, 5 μL) for 2 min. After the excess staining solution was drained off, the specimen was transferred for imaging by a transmission electron microscope (JEOL JEM-1400).

PDE10A2 (448–789) = target: T9, PDE10A2 (448–789) (Homo sapiens, UniProt Q9Y233); assay: PDE activity assay, PDE10A2 catalytic domain; assay type: biochemical
T9 construct: PDE10A2 (448–789)
T9 sequence (Q9Y233 714-1055): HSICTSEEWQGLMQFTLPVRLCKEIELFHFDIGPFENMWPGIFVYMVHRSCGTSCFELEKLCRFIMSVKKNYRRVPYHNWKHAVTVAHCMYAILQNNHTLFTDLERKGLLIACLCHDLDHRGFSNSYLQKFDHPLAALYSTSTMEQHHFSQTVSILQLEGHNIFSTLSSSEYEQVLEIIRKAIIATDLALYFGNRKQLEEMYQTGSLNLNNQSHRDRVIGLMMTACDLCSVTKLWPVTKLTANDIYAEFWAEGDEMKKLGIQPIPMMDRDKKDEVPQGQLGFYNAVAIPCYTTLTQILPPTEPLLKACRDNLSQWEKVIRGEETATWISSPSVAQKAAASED
Procedure: as §1

T8 sequence (P05067 672-713 limits assumed): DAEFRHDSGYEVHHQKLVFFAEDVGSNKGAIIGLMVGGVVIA
T4 sequence (P05067 672-713 limits assumed): as above
T5 sequence (O60658 480-820): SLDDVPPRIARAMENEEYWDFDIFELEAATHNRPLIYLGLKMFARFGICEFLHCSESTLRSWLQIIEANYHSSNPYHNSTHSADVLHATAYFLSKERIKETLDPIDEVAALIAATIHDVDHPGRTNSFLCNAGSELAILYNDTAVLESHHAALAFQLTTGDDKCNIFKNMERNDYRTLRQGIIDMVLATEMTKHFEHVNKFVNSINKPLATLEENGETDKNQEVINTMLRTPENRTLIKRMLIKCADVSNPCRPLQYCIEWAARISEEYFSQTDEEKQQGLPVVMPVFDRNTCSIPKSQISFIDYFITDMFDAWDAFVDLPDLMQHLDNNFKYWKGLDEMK
T3 sequence (Q08499 388-715): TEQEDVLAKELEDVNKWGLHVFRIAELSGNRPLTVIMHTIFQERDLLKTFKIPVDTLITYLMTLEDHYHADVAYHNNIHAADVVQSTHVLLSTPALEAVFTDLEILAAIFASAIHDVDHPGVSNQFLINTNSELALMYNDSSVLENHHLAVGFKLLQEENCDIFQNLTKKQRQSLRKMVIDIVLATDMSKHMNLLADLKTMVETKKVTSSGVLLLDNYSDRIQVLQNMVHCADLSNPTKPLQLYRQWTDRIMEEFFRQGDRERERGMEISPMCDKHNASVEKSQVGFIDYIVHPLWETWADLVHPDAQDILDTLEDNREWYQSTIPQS
T7 sequence (Q14432 679-1087): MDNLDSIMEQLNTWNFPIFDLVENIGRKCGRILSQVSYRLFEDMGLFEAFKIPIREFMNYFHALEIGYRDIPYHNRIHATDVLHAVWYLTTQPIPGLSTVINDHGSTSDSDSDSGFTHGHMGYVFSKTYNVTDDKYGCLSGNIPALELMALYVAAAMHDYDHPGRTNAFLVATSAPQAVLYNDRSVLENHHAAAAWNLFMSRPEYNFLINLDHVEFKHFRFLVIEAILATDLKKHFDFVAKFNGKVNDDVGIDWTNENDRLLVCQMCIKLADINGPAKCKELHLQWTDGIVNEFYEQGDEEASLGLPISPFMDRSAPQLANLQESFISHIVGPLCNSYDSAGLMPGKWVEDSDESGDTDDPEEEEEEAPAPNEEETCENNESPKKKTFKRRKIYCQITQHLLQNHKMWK
T6 sequence (Q01064 10-487 isoform Q01064-2): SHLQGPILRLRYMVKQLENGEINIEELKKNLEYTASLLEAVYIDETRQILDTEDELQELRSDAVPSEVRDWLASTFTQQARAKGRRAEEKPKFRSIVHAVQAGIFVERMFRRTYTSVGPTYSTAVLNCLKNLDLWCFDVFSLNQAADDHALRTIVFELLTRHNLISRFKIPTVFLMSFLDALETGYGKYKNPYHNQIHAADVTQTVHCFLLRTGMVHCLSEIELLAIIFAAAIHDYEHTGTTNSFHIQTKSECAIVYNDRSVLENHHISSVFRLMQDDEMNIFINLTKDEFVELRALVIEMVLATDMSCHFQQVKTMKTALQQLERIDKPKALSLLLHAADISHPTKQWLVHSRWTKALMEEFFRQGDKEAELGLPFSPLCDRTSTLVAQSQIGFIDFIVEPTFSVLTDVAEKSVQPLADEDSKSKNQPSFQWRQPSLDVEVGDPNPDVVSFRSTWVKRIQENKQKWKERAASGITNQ
T2 sequence (O00408 580-941): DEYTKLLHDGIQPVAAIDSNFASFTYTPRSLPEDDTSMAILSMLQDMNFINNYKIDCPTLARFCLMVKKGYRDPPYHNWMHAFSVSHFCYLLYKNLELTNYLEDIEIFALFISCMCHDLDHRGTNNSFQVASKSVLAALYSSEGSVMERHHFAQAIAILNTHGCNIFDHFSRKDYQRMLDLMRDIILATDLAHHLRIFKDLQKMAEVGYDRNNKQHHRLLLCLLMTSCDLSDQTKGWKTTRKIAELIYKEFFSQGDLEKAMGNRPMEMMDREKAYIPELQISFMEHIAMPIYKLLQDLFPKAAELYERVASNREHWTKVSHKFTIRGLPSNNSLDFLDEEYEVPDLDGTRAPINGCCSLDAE
T1 sequence (Q13946 130-482): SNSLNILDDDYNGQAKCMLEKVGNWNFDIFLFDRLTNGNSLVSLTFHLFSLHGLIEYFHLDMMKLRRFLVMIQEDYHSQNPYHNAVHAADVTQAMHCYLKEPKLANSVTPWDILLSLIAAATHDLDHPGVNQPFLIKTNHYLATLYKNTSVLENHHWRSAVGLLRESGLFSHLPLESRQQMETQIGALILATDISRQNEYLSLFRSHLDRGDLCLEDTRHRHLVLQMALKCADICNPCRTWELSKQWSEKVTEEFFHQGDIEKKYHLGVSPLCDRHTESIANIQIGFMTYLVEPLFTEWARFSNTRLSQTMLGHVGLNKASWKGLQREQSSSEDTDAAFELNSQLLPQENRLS

## COc1ccc(CN[C@H](C)c2nc3c(cnn3C3CCCC3)c(=O)[nH]2)c(O)c1 [Compound 16]
SH-SY5Y cells [1]
  cytotoxicity toward SH-SY5Y cells (MTT): nearly no toxicity
[2]
  copper redox cycling, OH· production (7-hydroxyl-CCA fluorescence): fully inhibited
PDE7A1 (130–482)
  IC50: > 50000 nM
PDE2A3 (580–941)
  IC50: > 50000 nM
PDE4D2 (86–413)
  IC50: 25000 nM
[3]
  chelation of Cu^2+, Fe^2+, Zn^2+ (UV-vis absorbance changes): formation of 16-Metal ion (II) complex
  chelation of Fe^3+ (UV-vis): failed to chelate Fe^3+ effectively
[4]; PAMPA, PBS:EtOH (70:30), mean ± SD of three independent experiments, read-out: Permeability
  Papp at 10 h, 100 μg/mL: 17 ×10⁻⁶ cm/s
[4]; from PAMPA-BBB Pe
  prediction of penetration into the CNS: CNS+ (Compounds of high BBB permeation (CNS+) Pe > 4.7)
Aβ1-42 fibrils
  disaggregation of Cu^2+-induced Aβ1-42 fibrils (ThT): 64.6%
PDE8A1 (480–820)
  IC50: > 50000 nM
PDE1B2 (10–487)
  IC50: 17000 nM
PDE5A1 (535–860)
  IC50: 1900 nM
[5]
  logP at 30 min: 1.1
PDE3A (679–1087)
  IC50: > 10000 nM
[6]
  ORAC: 4.47 ± 0.10 μmol of Trolox equiv/μmol tested compound
  oxygen radical absorbance capacity, ORAC-FL value: 4.47 ORAC-FL units
SH-SY5Y cells [7]
  intracellular antioxidant activity (ROS, DCFH-DA): superior antioxidant activity to that of Trolox
Aβ1-42
  Aβ fibrils by TEM, disaggregation of preformed fibrils: drastically reduced the amount of Aβ fibrils
  Aβ fibrils by TEM, inhibition of Cu^2+-induced aggregation: fewer fibrils were observed than in the presence of CQ
PDE10A2 (448–789)
  IC50: 6900 nM
